Measured values taken from PMC7100484 (Pharmaceutical Research, 2020).
pEC50, pIC50: −log10 of the molar value.

Experiments:
ZIKV = experiment: microbe, parasite or virus in culture; type: cell-based; settings: Zika virus
[1] = target: Human Viral RNA Sensor RIG-I (Homo sapiens, UniProt O95786); experiment: biochemical; type: binding
MCF7 Cells = experiment: cells; type: cell-based; settings: Homo sapiens, MCF7, read-out: IC50, inhibition of total fluorescent intensity/cell of Lysotracker Red
Mengo virus = settings: mouse, in vivo; cited from earlier work
Semliki Forest = settings: mouse, in vivo; cited from earlier work
[2] = system: Encephalomyocarditis virus (EMCV); settings: mouse, in vivo; cited from earlier work
Influenza B = settings: mouse, in vivo; cited from earlier work
Influenza A/Jap/305 = settings: mouse, in vivo; cited from earlier work
Herpes simplex virus 1 = settings: 250 mg/kg oral doses for 7 days; cited from earlier work
West Nile virus = settings: 10 mg/kg; cited from earlier work
EMCV = settings: cited from earlier work
[3] = system: respiratory tract infections; settings: in vivo; cited from earlier work
interferon = settings: in vivo, po; cited from earlier work
cytokines and chemokines = settings: mouse, in vivo; cited from earlier work
macrophages = macrophages from naive BALB/c mice; cited from earlier work
mitochondrial potential = settings: cited from earlier work
fibroblasts = settings: cited from earlier work
[4] = not told; cited from earlier work
[5] = microsomes; cited from earlier work

Human Viral RNA Sensor RIG-I, sequence (O95786 whole entry): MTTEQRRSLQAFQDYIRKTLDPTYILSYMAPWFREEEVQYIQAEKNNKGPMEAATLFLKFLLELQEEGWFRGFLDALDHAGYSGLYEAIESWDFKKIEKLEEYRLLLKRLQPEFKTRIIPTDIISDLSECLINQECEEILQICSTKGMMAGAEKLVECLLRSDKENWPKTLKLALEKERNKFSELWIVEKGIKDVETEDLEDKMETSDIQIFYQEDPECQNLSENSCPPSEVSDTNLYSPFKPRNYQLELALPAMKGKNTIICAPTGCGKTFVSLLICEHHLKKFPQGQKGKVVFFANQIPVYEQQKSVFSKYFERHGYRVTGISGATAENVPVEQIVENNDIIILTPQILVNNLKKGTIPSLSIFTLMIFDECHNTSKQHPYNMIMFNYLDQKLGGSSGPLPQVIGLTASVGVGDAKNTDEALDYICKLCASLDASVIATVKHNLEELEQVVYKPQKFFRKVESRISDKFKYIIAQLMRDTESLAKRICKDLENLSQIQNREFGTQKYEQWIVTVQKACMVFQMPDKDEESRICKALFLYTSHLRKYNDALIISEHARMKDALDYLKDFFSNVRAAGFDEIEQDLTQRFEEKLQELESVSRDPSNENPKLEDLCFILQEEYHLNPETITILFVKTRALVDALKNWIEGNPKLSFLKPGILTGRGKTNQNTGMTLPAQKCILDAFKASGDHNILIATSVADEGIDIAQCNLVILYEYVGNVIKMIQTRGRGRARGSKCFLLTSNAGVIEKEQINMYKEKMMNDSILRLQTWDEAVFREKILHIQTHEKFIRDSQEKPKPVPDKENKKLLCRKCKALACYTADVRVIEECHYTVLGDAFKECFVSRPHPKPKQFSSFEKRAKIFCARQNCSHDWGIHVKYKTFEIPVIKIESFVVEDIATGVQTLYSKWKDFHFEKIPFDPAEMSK

CCN(CC)CCOc1ccc2c(c1)C(=O)c1cc(OCCN(CC)CC)ccc1-2 [Tilorone, 2,7-Bis[2-(diethylamino)ethoxy]-9H-fluoren-9-one]
pEC50 (ZIKV): 5.28 | pEC50 [1]: 3.30 | pIC50 (MCF7 Cells): ~5.40 | survival in mice (Mengo virus): 80% survival in mice at 250 mg/kg single oral dose | survival in mice (Semliki Forest): 100% survival in mice at 250 mg/kg single oral dose | survival in mice [2]: 80% survival in mice at 250 mg/kg single oral dose | survival in mice (Influenza B): 50% survival in mice at 250 mg/kg single oral dose | survival in mice (Influenza A/Jap/305): 30% survival in mice at 250 mg/kg single oral dose | survival in mice (Herpes simplex virus 1): 45% survival in mice at 250 mg/kg oral doses for 7 days | lethality protection (West Nile virus): 46% lethality protection at 10 mg/kg | drop of virus titer (EMCV): 1 log drop of virus titer at 25 mg/ml in vitro | prophylactic efficacy [3]: 72% | interferon induction (interferon): inducer of interferon | levels of IL-6, IL-10, IL-12 (p40), IL-12 (p70), IL-17, Eotaxin, MCP-1, MIP-1B and RANTES (cytokines and chemokines): significantly higher levels | in vivo secretion of IL-6, TNF-a and IL-12 (macrophages): increase in vivo secretion | mitochondrial potential (mitochondrial potential): rapid increase | ATP-dependent acidification (fibroblasts): inhibited the ATP-dependent acidification | lysosomal pH (fibroblasts): increase lysosomal pH | secretion of precursor forms of lysosomal enzymes (fibroblasts): enhanced the secretion of precursor forms of lysosomal enzymes | storage of sulfated glycosaminoglycans (fibroblasts): induce the storage of sulfated glycosaminoglycans | permeability (in words) [4]: highly permeable | species-liver microsome stability relationship [5]: increased in the order of guinea pig, non-human primate, mouse, followed by human
